# Reference: patent publication US20040018500A1, “Methods and systems for analyzing complex biological systems” (priority 2001, published 2004)
# How the values were obtained:
# Arabidopsis thaliana [1] = assay: MOA1 phenotypic profiling of Arabidopsis sprayed with unknown and commercial herbicides; assay type: in vivo
# [2] = tested on: Arabidopsis thaliana plants; assay: SOA1 phenotypic analysis of herbicide-treated Arabidopsis plants; assay type: in vivo
# Arabidopsis thaliana [3] = assay: MOA1 biochemical (metabolite) profiling by LC-MS and GC-MS of sprayed Arabidopsis; conditions: MOA1; 20 minutes and 1 hour after spraying
# [4] = tested on: Saccharomyces cerevisiae wild type strain BY4743; assay: AF1 metabolite analysis (GC-MS, LC-MS) of yeast treated with antifungal drugs; assay type: cell-based
# [5] = tested on: Saccharomyces cerevisiae wild type strain BY4743; assay: AF1 combined gene expression and metabolite data mapped to KEGG reactions and pathways; assay type: cell-based
# Source text: In AF1, two different technologies were utilized: gene expression analysis (for examination of mRNA expression) and metabolite analysis. […] As noted previously, existing metabolic databases may be helpful in practicing the methods and systems of the present invention, but many databases include limitations that make their use in data analysis and pathway mapping less than straightforward. […] This caveat to KEGG makes it difficult to pinpoint the correct pathway when attempting to link a gene to a specific pathway. […] The pathway score indicates how meaningful the mapping is, or how likely it is to be correctly indicative of the pathway involved in the perturbation under examination. The method provides a pathway score based on perturbation levels of genes and/or compounds and the information content of each gene and/or compound in the pathway, i.e., a pathway score indicates the extent to which other pathways are mapped to a gene/compound. For example, imagine that two genes are perturbed in a particular experiment. One gene maps to only one pathway, giving a high degree of probability that the perturbed pathway is the one identified in the mapping. The second gene maps to three pathways. In the later example, there is only one-third the probability that the pathway identified in the mapping is the one perturbed. The present invention provides a method for calculating the pathway scores, so that more weight is given to a score of a gene or compound that maps to only one pathway than to a score of a gene or compound that maps to multiple pathways. […] Where n=the total number of genes in the pathway; ipath—count=the number of pathways containing a gene; and j=the number of genes in the pathway that are perturbed. Another factor to be considered when weighting a pathway score is the degree of perturbation. Degree of perturbation can be calculated, for example, based on a number of standard deviations from a norm, and included in an equation such as the one shown above, so that not only the number of pathways is taken into account, but also accounts for the amount of gene transcript or compound present as compared to a control. Compounds were also linked to pathways using the KEGG database. […] Of the 676 compounds under consideration, 77 were detected in the AF1 samples. […] The multiple mapping feature of KEGG makes it difficult to pinpoint the correct pathway when trying to link a compound to a specific pathway. […] A pathway score calculation is applied to the compounds to account for both information content (number of pathways a compound maps to) and perturbation level. The data were then combined to determine the number of reactions showing an enzyme and at least one compound perturbed, and to determine the number of pathways having at least one enzyme and one perturbed compound perturbed. The results of the analysis are represented in Tables 16 and 17, and were difficult to interpret, illustrating that the ability to draw conclusions from compound mapping to pathways is limited when absent additional data.
smiles,measurement,setting,value
Nc1nc[nH]n1 [Amitrole],phenotype observed,Arabidopsis thaliana [1],exhibited chlorosis and not true bleaching
same,characteristic symptoms (phenotypic analysis),[2]; herbicide-treated Arabidopsis,leaf bleaching and leaf enlargement
same,Symptom Class,"[2]; three-week-old Arabidopsis treated with herbicide, phenotypes shown in FIG. 12",2
CCSC(=O)N(CC(C)C)CC(C)C [Butylate],phenotype observed,Arabidopsis thaliana [1],neither showed a strong herbicidal phenotype
same,commonly regulated (putative stress-related) metabolites,Arabidopsis thaliana [3],neither butylate nor chlorpropham treatment resulted in many changes in these commonly regulated metabolites
CC(C)OC(=O)Nc1cccc(Cl)c1 [Chloropropham],phenotype observed,Arabidopsis thaliana [1],neither showed a strong herbicidal phenotype
same,commonly regulated (putative stress-related) metabolites,Arabidopsis thaliana [3],neither butylate nor chlorpropham treatment resulted in many changes in these commonly regulated metabolites
CC(=O)N1CCN(c2ccc(OCC3COC(Cn4ccnc4)(c4ccc(Cl)cc4Cl)O3)cc2)CC1 (stereo not shown) [Ketoconazole],# Compounds perturbed,"[4]; P < 0.1, yeast, 2×MIC, two hours",15
same,Number of Reactions Having an Enzyme and at Least One Compound Perturbed,[5],21
CC[C@@H]([C@H](C)O)n1ncn(-c2ccc(N3CCN(c4ccc(OC[C@@H]5CO[C@@](Cn6cncn6)(c6ccc(F)cc6F)C5)cc4)CC3)cc2)c1=O [Posaconazole],Fold Change of ornithine3,"[4]; platform GC, p-Value 0.965157424",0.041
same,Fold Change of phosphoenolpyruvate,"[4]; platform LC, p-Value 1",0
same,Fold Change of NacetylDglucosamine,"[4]; platform nLC, p-Value 1",0
same,Fold Change of NacetylLornithine,"[4]; platform nLC, p-Value 1",0
same,Fold Change of orotic acid,"[4]; platform nLC, p-Value 1",0
same,Fold Change of phenylpyruvic acid,"[4]; platform nLC, p-Value 1",0
same,Fold Change of phosphoenolpyruvate,"[4]; platform nLC, p-Value 1",0
same,Fold Change of pinitol,"[4]; platform nLC, p-Value 1",0
same,Fold Change of retinoic acid,"[4]; platform nLC, p-Value 1",0
same,Fold Change of salicylic/HObenzoic,"[4]; platform nLC, p-Value 1",0
same,Fold Change of shikimic acid,"[4]; platform nLC, p-Value 1",0
same,Fold Change of sinapinic acid,"[4]; platform nLC, p-Value 1",0
same,Fold Change of thymine,"[4]; platform nLC, p-Value 1",0
same,Fold Change of urocanic acid,"[4]; platform nLC, p-Value 1",0
same,Fold Change of xanthosineDiH2O,"[4]; platform nLC, p-Value 1",0
same,Fold Change of zeatin,"[4]; platform nLC, p-Value 1",0
same,Fold Change of NacetylLglucosamine,"[4]; platform pLC, p-Value 1",0
same,Fold Change of NacetylLglutamate,"[4]; platform pLC, p-Value 1",0
same,Fold Change of niacinamide,"[4]; platform pLC, p-Value 1",0
same,Fold Change of nopaline,"[4]; platform pLC, p-Value 1",0
same,Fold Change of progesterone,"[4]; platform pLC, p-Value 1",0
same,Fold Change of riboflavin,"[4]; platform pLC, p-Value 1",0
same,Fold Change of sugar-phosphate,"[4]; platform pLC, p-Value 1",0
same,Fold Change of thiamine,"[4]; platform pLC, p-Value 1",0
same,Fold Change of thymine,"[4]; platform pLC, p-Value 1",0
same,Fold Change of tryptophan,"[4]; platform pLC, p-Value 1",0
same,Fold Change of uric acid,"[4]; platform pLC, p-Value 1",0
same,Fold Change of urocanic acid,"[4]; platform pLC, p-Value 1",0
same,Fold Change of xanthosine(diH2O),"[4]; platform pLC, p-Value 1",0
same,Fold Change of zeatin,"[4]; platform pLC, p-Value 1",0
same,Number of Reactions Having an Enzyme and at Least One Compound Perturbed,[5],0
